From PubChem BioAssay (NCI)
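Five compound concentrations were applied to cells in 96-well plates for 48 hours; endpoints were derived by simple linear interpolation of the resulting dose-response curve. The concentration for 50% growth inhibition is given as GI50. TGI denotes the concentration required for complete inhibition of growth.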

Legend:
Assay in all cases: NCI tumour cell line growth inhibition, 48 h
MDA-N = tested on: MDA-N
LXFL 529 NSCLC = tested on: LXFL 529 NSCLC
DLD-1 colon = tested on: DLD-1 colon
DMS 114 small cell lung = tested on: DMS 114 small cell lung
HOP-18 NSCLC = tested on: HOP-18 NSCLC
SNB-78 CNS = tested on: SNB-78 CNS
RXF-631 renal = tested on: RXF-631 renal
XF 498 CNS = tested on: XF 498 CNS
M19-MEL melanoma = tested on: M19-MEL melanoma

## CN(C)CCSS(=O)(=O)O
MDA-N
  TGI: > 100 µM

## Cc1cc(N(CCC#N)CCC#N)ccc1N=Nc1ccc(Br)cc1
LXFL 529 NSCLC
  TGI: > 100 µM
DLD-1 colon
  TGI: > 100 µM
DMS 114 small cell lung
  TGI: > 71.3 µM
HOP-18 NSCLC
  TGI: > 100 µM
SNB-78 CNS
  TGI: > 65.8 µM
RXF-631 renal
  TGI: 25.1 µM
XF 498 CNS
  TGI: 13.3 µM
M19-MEL melanoma
  TGI: > 100 µM

## N/N=C1\C(=O)N(c2ccc(Cl)cc2Cl)C(=O)C(=O)C1c1nc2ccccc2o1 (stereo not given)
LXFL 529 NSCLC
  TGI: > 100 µM
DLD-1 colon
  TGI: > 100 µM
DMS 114 small cell lung
  TGI: > 100 µM
HOP-18 NSCLC
  TGI: > 100 µM
SNB-78 CNS
  TGI: > 100 µM
RXF-631 renal
  TGI: > 100 µM
M19-MEL melanoma
  TGI: > 100 µM

## C[Si](C)(C)/C=C\CCO
LXFL 529 NSCLC
  TGI: > 100 µM
DLD-1 colon
  TGI: > 100 µM
DMS 114 small cell lung
  TGI: > 100 µM
HOP-18 NSCLC
  TGI: > 100 µM
SNB-78 CNS
  TGI: > 100 µM
RXF-631 renal
  TGI: > 100 µM
XF 498 CNS
  TGI: > 100 µM
M19-MEL melanoma
  TGI: > 100 µM

## C1CC2CN(CCCN3CCOCC3)C(C1)O2 (stereo not given)
MDA-N
  TGI: > 100 µM

## COc1ccc(CCc2cc(OC)cc(OC)c2)cc1
LXFL 529 NSCLC
  TGI: > 100 µM
DLD-1 colon
  TGI: > 100 µM
DMS 114 small cell lung
  TGI: 24.6 µM
HOP-18 NSCLC
  TGI: > 100 µM
SNB-78 CNS
  TGI: > 100 µM
RXF-631 renal
  TGI: > 72.7 µM
XF 498 CNS
  TGI: 83.8 µM
M19-MEL melanoma
  TGI: > 100 µM

## c1ccc2c(c1)oc1ccc3nsnc3c12
LXFL 529 NSCLC
  TGI: > 100 µM
DLD-1 colon
  TGI: > 100 µM
DMS 114 small cell lung
  TGI: > 100 µM
HOP-18 NSCLC
  TGI: > 100 µM
RXF-631 renal
  TGI: > 100 µM
M19-MEL melanoma
  TGI: > 100 µM

## CC(=O)OCC(=O)[C@@]12OC(C)(C)O[C@@H]1C[C@H]1[C@@H]3CC(C=O)=C4C=C(OCCCl)CC[C@]4(C)[C@@]3(F)[C@@H](O)C[C@@]12C
DLD-1 colon
  TGI: > 100 µM
DMS 114 small cell lung
  TGI: > 100 µM
HOP-18 NSCLC
  TGI: 87.6 µM
SNB-78 CNS
  TGI: 68.8 µM
XF 498 CNS
  TGI: 35.8 µM
M19-MEL melanoma
  TGI: > 100 µM

## O=C(Nn1c(-c2ccccc2)nc2ccccc2c1=O)c1ccccc1O
MDA-N
  TGI: > 100 µM

## CC(=O)[O-].[Mn+3].[O-]c1ccccc1C=NCCNCCN=Cc1ccccc1[O-]
LXFL 529 NSCLC
  GI50: > 100 µM
  TGI: > 100 µM
HOP-18 NSCLC
  GI50: > 100 µM
  TGI: > 100 µM
SNB-78 CNS
  GI50: > 100 µM
  TGI: > 100 µM
M19-MEL melanoma
  GI50: > 100 µM
  TGI: > 100 µM

## Cc1c(NC(=S)NC(=O)c2ccc([N+](=O)[O-])cc2)c(=O)n(-c2ccccc2)n1C
LXFL 529 NSCLC
  TGI: > 100 µM
DLD-1 colon
  TGI: > 100 µM
DMS 114 small cell lung
  TGI: > 100 µM
HOP-18 NSCLC
  TGI: > 100 µM
SNB-78 CNS
  TGI: > 100 µM
M19-MEL melanoma
  TGI: > 100 µM

## CCOC(=O)CCn1ncc(Cl)c(Cl)c1=O
LXFL 529 NSCLC
  TGI: 10.5 µM
DLD-1 colon
  TGI: 21.5 µM
DMS 114 small cell lung
  TGI: 4.3 µM
HOP-18 NSCLC
  TGI: 11.7 µM
SNB-78 CNS
  TGI: 22.1 µM
RXF-631 renal
  TGI: 7.92 µM
XF 498 CNS
  TGI: 37.9 µM
M19-MEL melanoma
  TGI: 8.35 µM

## C1CC[N-]CC1.CC(=N\O)/C(C)=N/O.CC(=N\O)/C(C)=N/O.OC1[CH-]CCCC1.[Co+2]
MDA-N
  GI50: 40.9 µM
  TGI: > 100 µM

## CC1=NN(C(=O)c2ccc(Cl)cc2)C(=O)/C1=C/c1ccccc1O
LXFL 529 NSCLC
  TGI: > 100 µM
DLD-1 colon
  TGI: > 100 µM
DMS 114 small cell lung
  TGI: > 100 µM
SNB-78 CNS
  TGI: > 100 µM
XF 498 CNS
  TGI: > 100 µM
M19-MEL melanoma
  TGI: > 100 µM

## C[C@]12CC[C@H](O)CC1=CC[C@@H]1C2CC[C@]2(C)Nc3c(cnn3-c3ccccc3)CC12 (stereo not given in full)
LXFL 529 NSCLC
  TGI: 19.7 µM
DLD-1 colon
  TGI: 35.7 µM
DMS 114 small cell lung
  TGI: 15.1 µM
SNB-78 CNS
  TGI: 67.7 µM
RXF-631 renal
  TGI: 3.82 µM
M19-MEL melanoma
  TGI: 27.5 µM

## O=C1/C(=C/c2ccccc2)CN(C(=O)CCN2CCCC2)C/C1=C\c1ccccc1
LXFL 529 NSCLC
  TGI: 4.36 µM
MDA-N
  TGI: 1.46 µM
DLD-1 colon
  TGI: 3.12 µM
DMS 114 small cell lung
  TGI: 4.66 µM
HOP-18 NSCLC
  TGI: 9.09 µM
SNB-78 CNS
  TGI: 16.5 µM
RXF-631 renal
  TGI: 13.2 µM
XF 498 CNS
  TGI: 16.8 µM
M19-MEL melanoma
  TGI: 3.79 µM

## Cn1c(-c2ccc(/C=N/NC(=S)N/N=C/c3ccc(-c4c[n+]5ccsc5n4C)cc3)cc2)c[n+]2ccsc12
MDA-N
  TGI: > 100 µM

## COc1cc2c(cc1O)CC1c3c(cc(O)c(OC)c3-2)CCN1C (stereo not given)
MDA-N
  TGI: > 100 µM

## COc1cc(C)c(C2NC(=O)c3ccccc3N2)cc1C (stereo not given)
MDA-N
  TGI: 0.128 µM

## O=C1CCC(N2C(=O)c3ccccc3C2=O)C(=O)N1 (stereo not given)
MDA-N
  TGI: > 100 µM

## O=c1[nH]c2ccccc2n1CCCN1CCC(n2c(=O)[nH]c3cc(Cl)ccc32)CC1
MDA-N
  TGI: 29.4 µM

## COC(=O)c1c2c(cc3c1CC1(Cc4cc5c(c(C(C)=O)c4C1)CCC5)C3)CCC2 (stereo not given)
LXFL 529 NSCLC
  TGI: > 100 µM
DLD-1 colon
  TGI: > 100 µM
DMS 114 small cell lung
  TGI: > 100 µM
HOP-18 NSCLC
  TGI: > 100 µM
SNB-78 CNS
  TGI: > 100 µM
XF 498 CNS
  TGI: > 100 µM
M19-MEL melanoma
  TGI: > 100 µM

## CC(C)(C)C(=CS(=O)/N=C/c1ccccc1)C(C)(C)C (stereo not given)
LXFL 529 NSCLC
  TGI: 76.5 µM
DLD-1 colon
  TGI: > 100 µM
DMS 114 small cell lung
  TGI: 82.1 µM
SNB-78 CNS
  TGI: > 100 µM
RXF-631 renal
  TGI: > 100 µM
XF 498 CNS
  TGI: 89.7 µM
M19-MEL melanoma
  TGI: > 100 µM
